Like-named read-outs stand apart in the source and are kept apart here.
Columns and labels:
BMPR2 = target: T1, BMPR2 (Homo sapiens, UniProt Q13873); experiment: KINOMEscan scanEDGE; assay type: binding; settings: 20 uM
T1 construct: purchased Eurofins DiscoverX (KINOMEscan; SAFETYscan E/IC50 ELECT)

Human Bicep myofibrils = experiment: Myofibril ATPase, human bicep; assay type: biochemical
Method: Myofibrils were prepared from various animals and tissues: rabbit psoas muscle and porcine cardiac muscle were purchased from Pel-Freez Biologicals. Human bicep and soleus muscle were purchased from BioIVT, and neonatal rat muscle was obtained in house. All myofibrils were prepared using published methods ([21]).
A lactate dehydrogenase/pyruvate kinase enzyme-coupled system ([62]) was used to monitor ATP hydrolysis rates in various muscle preparations. Rabbit psoas myofibrils were used for high-throughput screening at pCa 6.25 at 0.25 mg/mL. A multidrop cassette (Thermo Fisher Scientific) dispensed 10 μL of the coupled enzyme system, calcium, and myofibrils to 10 μL ATP, NADH and PEP to initiate the reaction prior to reading on a plate reader (Envision, Perkin Elmer) for 10 minutes per plate at room temperature. Hits were reconfirmed, and secondary assays were used to evaluate selectivity, including bovine cardiac myofibrils (pCa 5.86) and enzyme coupled hits with a hexokinase screen (Sigma-Aldrich).

WT or mdx mice = experiment: Rotarod endurance; assay type: in vivo, mouse; settings: single doses up to 10 mg/kg, 4 hours after oral administration
Method: Prior to in vivo assessments, mice were dosed PO after a 2-hour fast with 10 mL/Kg suspensions. Grip strength and rotarod assessments were performed masked, 4 hours after dosing using published protocols ([66], [67]). Grip strength was performed with a Columbus Instruments Rodent Force Meter. Forepaw strength represented the average of 5 trials with 30-second rest periods, normalized by BW. Rotarod endurance was performed with a Columbus Instruments RotaMax. Mice were placed on the device drum at 1 rpm, which accelerated 1 rpm every 3 seconds to 12 rpm and a maximal time of 500 seconds. This was repeated 3 times with a 3-minute rest and total time reported. Voluntary wheel running performance was assessed with a customized system. Timestamped RPMs were measured 24 hours per day by infrared sensors, and a custom software calculated distance. Whole-body EBD was visualized after intravenous administration ([35]). EBD in PBS at 10 mg/mL was sterile filtered, and 50 μL/10 g BW was injected via tail vein. After 24 hours, animals were sacrificed, skin was removed and fixed in 4% formalin for 24 hours, and photographed using a Leica/Lumix camera.

[1] = tested on: dystrophic golden retriever (GRMD) dogs; experiment: Plasma CK activity in GRMD dogs; assay type: in vivo, dog; settings: 7-month-old GRMD, 14 days oral gavage
Method: Plasma from mice and dogs were analyzed for CK activity using standard protocols (Pointe Scientific, Thermo Fisher Scientific).
Studies were performed in two phases. In the first phase, GRMD (n = 4, female, 7 months old) were dosed PO daily with vehicle for 2 weeks, followed by a suspension of EDG-5506 (3 mg/kg daily for 2 days, then 1 mg/kg daily for 2 weeks) and then with vehicle for 2 weeks. Blood was drawn at regular intervals (2–3 draws during the vehicle baseline, 5–8 draws during the dosing period, and 2 draws during the vehicle washout). In a separate dosing period, the same 4 dogs (10 months old) were administered vehicle for 14 days with regular blood draws (6–9 for each dog across the 14-day period). CK activity (Pointe Scientific, Thermo Fisher Scientific) was measured from plasma. In the second phase, the same 4 dogs (15 months old) were fitted with a collar-bound activity monitor (Fitbark 2, Fitbark Inc.) as described previously ([42]), and baseline activity was recorded for 27 days before daily oral gavage with vehicle for 22 days. Three dogs were then dosed in a similar pattern to phase 1 with EDG-5506 (2 mg/kg for 4 days and then 2 mg/kg every other day for 7 days). The fourth dog was dosed with vehicle over the same period. […] Average daily activity (“Fitbark points”) and time performing various activities (play, rest, active) were recorded.

ACVR1B = target: T2, ACVR1B (Homo sapiens, UniProt P36896); experiment: KINOMEscan scanEDGE; assay type: binding; settings: 20 uM
T2 construct: purchased Eurofins DiscoverX (KINOMEscan; SAFETYscan E/IC50 ELECT)

[2] = tested on: mouse extensor digitorum longus (EDL) muscle; experiment: Ex vivo isometric force, mouse EDL; settings: WT mouse EDL, 10 μM
Method: Isometric force was measured ex vivo in mouse EDL and soleus muscle. EDL muscle eccentric injury was based on published protocols ([30]), with degree of lengthening and stimulation modified to yield a uniform drop in mdx isometric and peak force over 10 contractions. After isolation, muscle was mounted via 5-0 suture to a combination servomotor/force transducer (300C-LR, Aurora) between 2 electrodes connected to a stimulator (701C, Aurora) in Ringers solution at 27°C with continuously infused CO2/O2 gas mixture. Experiments were recorded with custom MATLAB software via a National Instruments PCIe-6321 board and 2090A BNC connector. Muscles were preincubated for 60 minutes with DMSO (final 0.1%)/compound before 10 eccentric contractions, 1 minute apart, with 100 milliseconds of isometric stimulation at 100 Hz and active lengthening of 0.1 L0 at a rate of 2 L0/s. After lengthening, muscles were held at 1.1 L0 with stimulation for 100 milliseconds (Supplemental Figure 2A).

ABL1-phosphorylated = target: T3, ABL1-phosphorylated (Homo sapiens, UniProt P00519); experiment: KINOMEscan scanEDGE; assay type: binding; settings: 20 uM
T3 construct: purchased Eurofins DiscoverX (KINOMEscan; SAFETYscan E/IC50 ELECT)
T3 sequence (P00519 whole entry): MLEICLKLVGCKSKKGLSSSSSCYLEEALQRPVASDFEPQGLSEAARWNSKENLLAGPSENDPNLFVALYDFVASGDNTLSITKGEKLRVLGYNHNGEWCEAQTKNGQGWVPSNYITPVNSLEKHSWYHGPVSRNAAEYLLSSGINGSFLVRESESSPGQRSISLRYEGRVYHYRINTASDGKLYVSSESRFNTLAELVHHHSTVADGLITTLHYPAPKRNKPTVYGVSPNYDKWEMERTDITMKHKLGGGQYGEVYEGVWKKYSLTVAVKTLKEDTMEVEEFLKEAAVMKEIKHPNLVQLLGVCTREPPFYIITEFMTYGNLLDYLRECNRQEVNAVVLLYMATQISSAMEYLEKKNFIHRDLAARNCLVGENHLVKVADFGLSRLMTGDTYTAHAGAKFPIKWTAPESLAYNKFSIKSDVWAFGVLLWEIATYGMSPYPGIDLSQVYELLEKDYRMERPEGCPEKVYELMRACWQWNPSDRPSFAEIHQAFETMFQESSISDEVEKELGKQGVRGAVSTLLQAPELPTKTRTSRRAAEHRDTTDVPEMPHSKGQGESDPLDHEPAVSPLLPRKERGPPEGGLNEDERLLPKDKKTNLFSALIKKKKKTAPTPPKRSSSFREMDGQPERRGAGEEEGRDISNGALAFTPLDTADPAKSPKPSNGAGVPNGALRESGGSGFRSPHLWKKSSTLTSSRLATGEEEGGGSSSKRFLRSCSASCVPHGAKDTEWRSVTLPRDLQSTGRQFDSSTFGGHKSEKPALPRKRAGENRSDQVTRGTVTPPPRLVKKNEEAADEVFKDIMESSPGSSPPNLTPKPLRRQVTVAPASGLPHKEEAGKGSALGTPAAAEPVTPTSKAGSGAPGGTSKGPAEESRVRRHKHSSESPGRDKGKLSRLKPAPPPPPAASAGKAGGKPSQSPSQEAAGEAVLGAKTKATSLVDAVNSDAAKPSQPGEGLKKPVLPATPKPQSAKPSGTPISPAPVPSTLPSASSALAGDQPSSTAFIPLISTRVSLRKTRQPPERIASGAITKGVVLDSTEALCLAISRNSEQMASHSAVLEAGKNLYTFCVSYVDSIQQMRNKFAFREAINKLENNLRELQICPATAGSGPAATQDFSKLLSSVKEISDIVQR

AR = target: T4, AR (Homo sapiens, UniProt P10275); experiment: SAFETYscan NHR Nuclear Translocation; assay type: cell-based; parameters: dose or concentration left out as unconfirmed
T4 construct: purchased Eurofins DiscoverX (KINOMEscan; SAFETYscan E/IC50 ELECT)
T4 sequence (P10275 whole entry): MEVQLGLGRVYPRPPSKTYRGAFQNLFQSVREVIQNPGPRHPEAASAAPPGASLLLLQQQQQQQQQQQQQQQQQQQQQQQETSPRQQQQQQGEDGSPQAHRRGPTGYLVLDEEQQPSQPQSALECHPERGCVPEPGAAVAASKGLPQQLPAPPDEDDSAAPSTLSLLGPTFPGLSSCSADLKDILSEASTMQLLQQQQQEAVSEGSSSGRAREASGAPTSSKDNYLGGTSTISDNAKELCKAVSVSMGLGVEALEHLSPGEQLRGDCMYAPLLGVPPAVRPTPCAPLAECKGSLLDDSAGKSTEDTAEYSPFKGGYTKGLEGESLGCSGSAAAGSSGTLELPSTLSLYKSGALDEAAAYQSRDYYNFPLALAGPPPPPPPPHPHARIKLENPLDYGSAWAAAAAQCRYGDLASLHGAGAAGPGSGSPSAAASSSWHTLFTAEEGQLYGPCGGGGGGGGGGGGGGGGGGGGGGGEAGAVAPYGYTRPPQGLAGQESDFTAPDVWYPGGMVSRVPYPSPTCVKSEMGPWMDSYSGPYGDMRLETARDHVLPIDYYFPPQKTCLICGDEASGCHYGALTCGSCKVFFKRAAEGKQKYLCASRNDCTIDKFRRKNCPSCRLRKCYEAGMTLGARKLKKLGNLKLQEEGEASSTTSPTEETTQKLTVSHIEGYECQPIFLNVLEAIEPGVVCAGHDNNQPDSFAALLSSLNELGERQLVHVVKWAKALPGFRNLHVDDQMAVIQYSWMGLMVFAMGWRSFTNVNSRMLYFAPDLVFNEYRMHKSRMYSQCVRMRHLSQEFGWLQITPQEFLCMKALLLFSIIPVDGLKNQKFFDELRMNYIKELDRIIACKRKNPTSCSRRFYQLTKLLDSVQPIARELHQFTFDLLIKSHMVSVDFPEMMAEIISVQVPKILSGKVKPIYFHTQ
Method: (§1) The specificity of EDG-5506 for fast skeletal myosin over other, unrelated proteins was confirmed using two off-target binding and activity screens. […] A second off-target panel (SAFETYscan E/IC50 ELECT, Eurofins DiscoverX) tested in vitro enzyme activity against 78 proteins, including GPCR, ion channel, kinases, nuclear hormone receptors, and transporters. In all assays, the IC50 of EDG-5506 was more than 10 μM (Supplemental Data File 1).

90 kinase proteins = experiment: KINOMEscan off-target binding panel (whole panel); settings: 20 μM
[3] = target: T5, ABL1(E255K)-phosphorylated (Homo sapiens, UniProt P00519, E255K); experiment: KINOMEscan scanEDGE; assay type: binding; settings: 20 uM
T5 construct: purchased Eurofins DiscoverX (KINOMEscan; SAFETYscan E/IC50 ELECT)

PIK3CG = target: T6, PIK3CG (Homo sapiens, UniProt P48736); experiment: KINOMEscan scanEDGE; assay type: binding; settings: 20 uM
T6 construct: purchased Eurofins DiscoverX (KINOMEscan; SAFETYscan E/IC50 ELECT)

TIE2 = target: T7, TIE2 (Homo sapiens, UniProt Q02763); experiment: KINOMEscan scanEDGE; assay type: binding; settings: 20 uM
T7 construct: purchased Eurofins DiscoverX (KINOMEscan; SAFETYscan E/IC50 ELECT)

AKT2 = target: T8, AKT2 (Homo sapiens, UniProt P31751); experiment: KINOMEscan scanEDGE; assay type: binding; settings: 20 uM
T8 construct: purchased Eurofins DiscoverX (KINOMEscan; SAFETYscan E/IC50 ELECT)
T8 sequence (P31751 whole entry): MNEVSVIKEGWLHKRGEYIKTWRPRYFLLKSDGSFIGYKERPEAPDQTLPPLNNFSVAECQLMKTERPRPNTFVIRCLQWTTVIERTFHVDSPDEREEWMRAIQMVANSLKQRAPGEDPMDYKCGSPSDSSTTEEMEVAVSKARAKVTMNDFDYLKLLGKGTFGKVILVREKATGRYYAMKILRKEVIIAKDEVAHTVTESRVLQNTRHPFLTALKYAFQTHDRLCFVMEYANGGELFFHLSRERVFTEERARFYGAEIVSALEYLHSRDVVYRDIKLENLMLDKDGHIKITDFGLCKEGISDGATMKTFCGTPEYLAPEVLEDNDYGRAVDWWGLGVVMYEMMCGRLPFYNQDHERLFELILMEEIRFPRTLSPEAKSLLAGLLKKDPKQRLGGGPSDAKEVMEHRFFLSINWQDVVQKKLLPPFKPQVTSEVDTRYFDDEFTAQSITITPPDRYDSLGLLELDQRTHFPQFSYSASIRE

GR = target: T9, GR (Homo sapiens, UniProt P04150); experiment: SAFETYscan NHR Protein Interaction; assay type: cell-based; parameters: dose or concentration left out as unconfirmed
T9 construct: purchased Eurofins DiscoverX (KINOMEscan; SAFETYscan E/IC50 ELECT)
T9 sequence (P04150 whole entry): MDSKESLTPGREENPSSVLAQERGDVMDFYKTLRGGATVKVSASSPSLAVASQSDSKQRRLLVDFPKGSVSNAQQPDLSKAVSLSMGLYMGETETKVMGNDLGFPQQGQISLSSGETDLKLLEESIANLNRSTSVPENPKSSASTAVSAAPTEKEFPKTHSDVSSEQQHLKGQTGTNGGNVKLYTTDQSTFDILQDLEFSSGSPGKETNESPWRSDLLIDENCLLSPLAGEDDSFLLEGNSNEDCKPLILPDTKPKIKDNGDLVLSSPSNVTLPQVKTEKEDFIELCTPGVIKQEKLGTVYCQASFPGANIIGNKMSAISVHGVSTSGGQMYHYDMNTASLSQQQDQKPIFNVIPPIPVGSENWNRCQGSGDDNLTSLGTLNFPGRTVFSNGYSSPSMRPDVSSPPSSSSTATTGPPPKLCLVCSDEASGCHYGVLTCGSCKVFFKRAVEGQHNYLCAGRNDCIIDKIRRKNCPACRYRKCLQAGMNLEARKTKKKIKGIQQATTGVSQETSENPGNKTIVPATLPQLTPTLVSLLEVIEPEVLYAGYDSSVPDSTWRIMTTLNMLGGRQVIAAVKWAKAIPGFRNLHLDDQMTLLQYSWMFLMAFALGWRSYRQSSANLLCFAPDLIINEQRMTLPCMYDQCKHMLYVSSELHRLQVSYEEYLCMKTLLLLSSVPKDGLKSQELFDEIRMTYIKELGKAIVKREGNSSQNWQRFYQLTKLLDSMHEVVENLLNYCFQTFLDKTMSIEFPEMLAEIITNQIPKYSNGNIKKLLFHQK
Method: as §1

IKK-alpha = target: T10, IKK-alpha (Homo sapiens, UniProt O15111); experiment: KINOMEscan scanEDGE; assay type: binding; settings: 20 uM
T10 construct: purchased Eurofins DiscoverX (KINOMEscan; SAFETYscan E/IC50 ELECT)
T10 sequence (O15111 whole entry): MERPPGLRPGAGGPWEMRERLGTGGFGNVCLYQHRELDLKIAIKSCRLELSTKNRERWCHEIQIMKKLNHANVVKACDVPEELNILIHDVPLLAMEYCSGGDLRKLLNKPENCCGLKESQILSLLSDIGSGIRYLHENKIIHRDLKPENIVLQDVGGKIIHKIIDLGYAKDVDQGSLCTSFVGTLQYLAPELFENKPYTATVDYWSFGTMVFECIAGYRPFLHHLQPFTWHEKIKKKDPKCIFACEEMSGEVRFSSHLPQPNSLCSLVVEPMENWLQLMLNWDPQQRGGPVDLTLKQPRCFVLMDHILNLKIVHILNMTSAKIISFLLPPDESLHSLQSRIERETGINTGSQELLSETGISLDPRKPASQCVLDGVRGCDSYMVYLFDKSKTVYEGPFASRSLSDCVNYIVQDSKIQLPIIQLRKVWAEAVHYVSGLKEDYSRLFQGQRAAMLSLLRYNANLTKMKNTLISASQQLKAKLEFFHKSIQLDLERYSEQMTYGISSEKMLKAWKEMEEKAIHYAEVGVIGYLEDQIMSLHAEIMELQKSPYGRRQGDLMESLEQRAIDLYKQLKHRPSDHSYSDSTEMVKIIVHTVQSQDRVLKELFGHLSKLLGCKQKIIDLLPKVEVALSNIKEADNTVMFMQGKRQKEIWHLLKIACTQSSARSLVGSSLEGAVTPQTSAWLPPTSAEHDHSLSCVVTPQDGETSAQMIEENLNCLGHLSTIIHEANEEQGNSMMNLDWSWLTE

MARK3 = target: T11, MARK3 (Homo sapiens, UniProt P27448); experiment: KINOMEscan scanEDGE; assay type: binding; settings: 20 uM
T11 construct: purchased Eurofins DiscoverX (KINOMEscan; SAFETYscan E/IC50 ELECT)

[4] = read-out: Max Response (%) (Agonist)
[5] = read-out: Max Response (%) (Antagonist)

T1 sequence (Q13873 27-1038): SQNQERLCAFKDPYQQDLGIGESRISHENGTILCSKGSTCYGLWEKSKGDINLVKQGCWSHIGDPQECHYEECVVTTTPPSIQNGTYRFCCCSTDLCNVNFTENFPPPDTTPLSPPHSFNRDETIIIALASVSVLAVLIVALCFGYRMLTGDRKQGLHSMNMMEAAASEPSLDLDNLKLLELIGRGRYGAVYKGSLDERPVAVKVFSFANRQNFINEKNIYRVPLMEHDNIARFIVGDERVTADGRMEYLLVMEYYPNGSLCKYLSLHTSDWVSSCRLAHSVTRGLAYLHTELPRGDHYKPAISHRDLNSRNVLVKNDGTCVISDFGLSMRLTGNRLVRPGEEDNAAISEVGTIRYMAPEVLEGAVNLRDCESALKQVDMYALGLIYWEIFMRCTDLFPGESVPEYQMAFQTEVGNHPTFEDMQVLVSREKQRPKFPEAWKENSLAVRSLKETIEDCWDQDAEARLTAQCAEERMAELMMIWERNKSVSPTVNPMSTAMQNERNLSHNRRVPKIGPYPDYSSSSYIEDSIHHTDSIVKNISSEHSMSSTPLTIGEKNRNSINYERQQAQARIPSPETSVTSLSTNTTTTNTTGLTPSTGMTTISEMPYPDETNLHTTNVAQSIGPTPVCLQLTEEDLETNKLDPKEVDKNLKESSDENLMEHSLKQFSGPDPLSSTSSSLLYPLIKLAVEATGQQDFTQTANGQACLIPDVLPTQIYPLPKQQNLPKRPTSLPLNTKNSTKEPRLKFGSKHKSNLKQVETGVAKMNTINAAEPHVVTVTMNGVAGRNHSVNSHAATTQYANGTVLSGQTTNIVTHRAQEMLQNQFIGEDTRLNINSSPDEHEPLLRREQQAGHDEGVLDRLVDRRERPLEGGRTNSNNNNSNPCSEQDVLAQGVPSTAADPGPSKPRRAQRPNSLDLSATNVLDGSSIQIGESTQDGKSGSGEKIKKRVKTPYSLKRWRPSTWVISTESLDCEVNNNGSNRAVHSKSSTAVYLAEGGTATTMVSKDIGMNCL

O=c1ccc(-c2cnc(OCC(F)(F)F)nc2)nn1Cc1cncc(F)c1 [EDG-5506]
binding, % of control (BMPR2): 99 % of control
Maximum Inhibition (%) (Human Bicep myofibrils; human bicep myofibrils): 89%
IC50 (Human Bicep myofibrils; human bicep, 50% Type I, 50% IIa, IIx): 1.2 µM
rotarod endurance (WT or mdx mice): no effect
decrease in CK [1]: more than 50%
binding, % of control (ACVR1B): 91 % of control
ex vivo force inhibition [2]: completely inhibiting force
binding, % of control (ABL1-phosphorylated): 72 % of control
Emax (AR; [4]): 0%
Emax (AR; [5]): 0%
binding affinity with kinase panel (90 kinase proteins): did not exhibit any binding affinity
binding, % of control [3]: 83 % of control
binding, % of control (PIK3CG): 100 % of control
binding, % of control (TIE2): 95 % of control
binding, % of control (AKT2): 93 % of control
Emax (GR; [4]): 0.41%
Max inhibition (antagonist mode) (GR; [5]): 33.6%
binding, % of control (IKK-alpha): 93 % of control
binding, % of control (MARK3): 85 % of control
